Experimental data from paper PMC5218480 (PLoS ONE, 2017).

System: MV-4-11 cells
Test: Gene expression microarray analysis (Affymetrix PrimeView) and GSEA
Type: cell-based, human
Set-up: RFU PODN (11730768_x_at) / Fold change /veh PODN (11730768_x_at) / RFU LINC00158 (11744669_a_at) / Fold change /veh LINC00158 (11744669_a_at) / RFU DUSP10 (11751237_a_at) / Fold change /veh DUSP10 (11751237_a_at) / RFU ID3 (11757404_x_at) / Fold change /veh ID3 (11757404_x_at) / RFU PLEKHG5 (11737974_s_at) / Fold change /veh PLEKHG5 (11737974_s_at) / RFU LRRC4B (11730491_at) / Fold change /veh LRRC4B (11730491_at) / RFU GIMAP4 (11747438_a_at) / Fold change /veh GIMAP4 (11747438_a_at) / RFU KRT8 (11758183_x_at) / Fold change /veh KRT8 (11758183_x_at) / RFU CNN1 (11734310_a_at) / Fold change /veh CNN1 (11734310_a_at) / RFU VPS37D (11726825_at) / Fold change /veh VPS37D (11726825_at) / RFU C10orf10 (11716522_x_at) / Fold change /veh C10orf10 (11716522_x_at) / RFU KIR2DL2 /// KIR2DL4 /// KIR2DL5A /// KIR2DL5B /// KIR2DS1 /// KIR2DS2 /// KIR2DS3 /// KIR2DS4 /// KIR3DL3 /// KIR3DL3 /// KIR3DS1 (11738374_at) / Fold change /veh KIR2DL2 /// KIR2DL4 /// KIR2DL5A /// KIR2DL5B /// KIR2DS1 /// KIR2DS2 /// KIR2DS3 /// KIR2DS4 /// KIR3DL3 /// KIR3DL3 /// KIR3DS1 (11738374_at) / RFU C1QL1 (11718748_at) / Fold change /veh C1QL1 (11718748_at) / RFU TMPRSS4 (11747572_a_at) / Fold change /veh TMPRSS4 (11747572_a_at) / RFU HAMP (11756126_x_at) / Fold change /veh HAMP (11756126_x_at) / RFU RNFT2 (11725882_a_at) / Fold change /veh RNFT2 (11725882_a_at) / RFU NR4A2 (11747474_a_at) / Fold change /veh NR4A2 (11747474_a_at) / RFU ABCC12 (11746883_a_at) / Fold change /veh ABCC12 (11746883_a_at) / RFU TMEM136 (11760407_x_at) / Fold change /veh TMEM136 (11760407_x_at) / RFU CLDN22 /// WWC2 (11732394_at) / Fold change /veh CLDN22 /// WWC2 (11732394_at) / RFU HLA-DPB1 (11760878_x_at) / Fold change /veh HLA-DPB1 (11760878_x_at) / RFU SPINT1 (11716480_a_at) / Fold change /veh SPINT1 (11716480_a_at) / RFU GAP43 (11754022_s_at) / Fold change /veh GAP43 (11754022_s_at) / RFU A4GNT (11735810_at) / Fold change /veh A4GNT (11735810_at) / RFU PRB3 (11715151_x_at) / Fold change /veh PRB3 (11715151_x_at) / RFU TUBB4B (11761932_at) / Fold change /veh TUBB4B (11761932_at) / RFU CAPN14 (11732068_a_at) / Fold change /veh CAPN14 (11732068_a_at) / RFU TMCC2 (11721928_a_at) / Fold change /veh TMCC2 (11721928_a_at) / RFU IRGQ (11745062_a_at) / Fold change /veh IRGQ (11745062_a_at) / RFU FAM174B (11720279_a_at) / Fold change /veh FAM174B (11720279_a_at) / RFU TMPRSS4 (11748680_a_at) / Fold change /veh TMPRSS4 (11748680_a_at) / RFU FAM212B (11763350_a_at) / Fold change /veh FAM212B (11763350_a_at) / RFU PLEKHG5 (11743358_a_at) / Fold change /veh PLEKHG5 (11743358_a_at) / RFU ZSCAN30 (11745921_a_at) / Fold change /veh ZSCAN30 (11745921_a_at) / RFU CMKLR1 (11741424_a_at) / Fold change /veh CMKLR1 (11741424_a_at) / RFU LOC101060620 /// MAPK8IP1 (11723275_at) / Fold change /veh LOC101060620 /// MAPK8IP1 (11723275_at) / RFU SPTSSB (11747773_x_at) / Fold change /veh SPTSSB (11747773_x_at) / RFU PRSS12 (11739890_at) / Fold change /veh PRSS12 (11739890_at) / RFU BIN1 (11741810_x_at) / Fold change /veh BIN1 (11741810_x_at) / RFU WNT11 (11732464_a_at) / Fold change /veh WNT11 (11732464_a_at) / RFU C10orf10 (11716521_a_at) / Fold change /veh C10orf10 (11716521_a_at) / RFU C5orf56 (11738089_at) / Fold change /veh C5orf56 (11738089_at) / RFU CYB561 (11721691_x_at) / Fold change /veh CYB561 (11721691_x_at) / RFU ANKRD19P (11752326_a_at) / Fold change /veh ANKRD19P (11752326_a_at) / RFU OR2T12 /// OR2T33 /// OR2T8 (11738714_s_at) / Fold change /veh OR2T12 /// OR2T33 /// OR2T8 (11738714_s_at) / RFU VCAN (11748164_a_at) / Fold change /veh VCAN (11748164_a_at) / RFU JSRP1 (11732532_at) / Fold change /veh JSRP1 (11732532_at) / RFU KRTAP10-11 (11738290_x_at) / Fold change /veh KRTAP10-11 (11738290_x_at) / RFU MYO3A (11730013_a_at) / Fold change /veh MYO3A (11730013_a_at) / RFU EBF3 (11725865_a_at) / Fold change /veh EBF3 (11725865_a_at) / RFU CAMK2N1 (11719241_x_at) / Fold change /veh CAMK2N1 (11719241_x_at) / RFU C5orf56 (11738088_a_at) / Fold change /veh C5orf56 (11738088_a_at) / RFU OLFML3 (11715873_a_at) / Fold change /veh OLFML3 (11715873_a_at) / RFU LOC100653217 /// NTM (11731650_a_at) / Fold change /veh LOC100653217 /// NTM (11731650_a_at) / RFU MAPK11 (11762145_a_at) / Fold change /veh MAPK11 (11762145_a_at) / RFU FIZ1 (11724087_x_at) / Fold change /veh FIZ1 (11724087_x_at) / RFU OASL (11726364_x_at) / Fold change /veh OASL (11726364_x_at) / RFU SOX15 (11748057_x_at) / Fold change /veh SOX15 (11748057_x_at) / RFU CD79A (11719716_a_at) / Fold change /veh CD79A (11719716_a_at) / RFU HIST1H1D (11736915_at) / Fold change /veh HIST1H1D (11736915_at) / RFU CASKIN2 (11723855_a_at) / Fold change /veh CASKIN2 (11723855_a_at) / RFU LOC730098 (11760151_x_at) / Fold change /veh LOC730098 (11760151_x_at) / RFU OR4N2 (11742367_at) / Fold change /veh OR4N2 (11742367_at) / RFU PRRT2 (11749266_a_at) / Fold change /veh PRRT2 (11749266_a_at) / RFU SNX32 (11753110_a_at) / Fold change /veh SNX32 (11753110_a_at) / RFU CDHR5 (11726645_a_at) / Fold change /veh CDHR5 (11726645_a_at) / RFU RCAN1 (11760418_a_at) / Fold change /veh RCAN1 (11760418_a_at) / RFU FAM167A (11723789_a_at) / Fold change /veh FAM167A (11723789_a_at) / RFU FAM26E (11764081_at) / Fold change /veh FAM26E (11764081_at) / RFU ISYNA1 (11749810_s_at) / Fold change /veh ISYNA1 (11749810_s_at) / RFU ACY1 (11761880_at) / Fold change /veh ACY1 (11761880_at) / RFU 11764098_at / Fold change /veh 11764098_at / RFU SAMD14 (11745864_x_at) / Fold change /veh SAMD14 (11745864_x_at) / RFU NPB (11741838_a_at) / Fold change /veh NPB (11741838_a_at) / RFU TMPRSS6 (11731388_a_at) / Fold change /veh TMPRSS6 (11731388_a_at) / RFU KRTAP10-2 (11738614_at) / Fold change /veh KRTAP10-2 (11738614_at) / RFU ARHGAP8 /// PRR5-ARHGAP8 (11727945_x_at) / Fold change /veh ARHGAP8 /// PRR5-ARHGAP8 (11727945_x_at) / RFU KRTAP5-7 /// NADSYN1 (11734609_at) / Fold change /veh KRTAP5-7 /// NADSYN1 (11734609_at) / RFU RASL12 (11751679_a_at) / Fold change /veh RASL12 (11751679_a_at) / RFU CDKN2B (11736163_a_at) / Fold change /veh CDKN2B (11736163_a_at) / RFU PRF1 (11729649_at) / Fold change /veh PRF1 (11729649_at) / RFU, ZNF638 /// ZNF638-IT1 / Fold change vs veh, ZNF638 /// ZNF638-IT1 / RFU, PANK3 / Fold change vs veh, PANK3 / RFU, SH3YL1 / Fold change vs veh, SH3YL1 / RFU, ZEB2 / Fold change vs veh, ZEB2 / RFU, NRIP1 / Fold change vs veh, NRIP1 / RFU, PTTG1IP / Fold change vs veh, PTTG1IP / RFU, CAPN2 / Fold change vs veh, CAPN2 / RFU, MED14 / Fold change vs veh, MED14 / RFU, SNORA58 / Fold change vs veh, SNORA58 / RFU, C1orf63 / Fold change vs veh, C1orf63 / RFU, LRRFIP1 / Fold change vs veh, LRRFIP1 / RFU, NDUFAF7 / Fold change vs veh, NDUFAF7 / RFU, SLC12A2 / Fold change vs veh, SLC12A2 / RFU, IBTK / Fold change vs veh, IBTK / RFU, ESF1 / Fold change vs veh, ESF1 / Fold change vs veh, TMEM50B / RFU, TAOK1 / Fold change vs veh, TAOK1 / RFU, ACBD3 / Fold change vs veh, ACBD3 / RFU, TMA16 / Fold change vs veh, TMA16 / RFU, RWDD3 / Fold change vs veh, RWDD3 / RFU, BCAT1 / Fold change vs veh, BCAT1 / RFU, EDEM3 / Fold change vs veh, EDEM3 / RFU, TMEM33 / Fold change vs veh, TMEM33 / RFU, WDR75 / Fold change vs veh, WDR75 / RFU, AHCTF1 / Fold change vs veh, AHCTF1 / RFU, TFRC / Fold change vs veh, TFRC / RFU, ZDHHC17 / Fold change vs veh, ZDHHC17 / RFU, NOM1 / Fold change vs veh, NOM1 / RFU, ARL8B / Fold change vs veh, ARL8B / RFU, ZBTB11 / Fold change vs veh, ZBTB11 / RFU, TAMM41 / Fold change vs veh, TAMM41 / RFU, KIAA1704 /// LOC100996395 / Fold change vs veh, KIAA1704 /// LOC100996395 / RFU, ING1 / Fold change vs veh, ING1 / RFU, TRMT61B / Fold change vs veh, TRMT61B / RFU, FUBP3 / Fold change vs veh, FUBP3 / RFU, TP53 / Fold change vs veh, TP53 / RFU, TNKS2 / Fold change vs veh, TNKS2 / RFU, ZFP14 / Fold change vs veh, ZFP14 / RFU, ACTR2 / Fold change vs veh, ACTR2 / RFU, PPP3R1 / Fold change vs veh, PPP3R1 / RFU, PIK3R1 / Fold change vs veh, PIK3R1 / RFU, HNRNPA1 / Fold change vs veh, HNRNPA1 / RFU, RNF170 / Fold change vs veh, RNF170 / RFU, ZNF28 / Fold change vs veh, ZNF28 / RFU, RNGTT / Fold change vs veh, RNGTT / RFU, OGT / Fold change vs veh, OGT / RFU, BRD1 / Fold change vs veh, BRD1 / RFU, MARS / Fold change vs veh, MARS / RFU, ZNF655 / Fold change vs veh, ZNF655 / RFU, FAHD1 / Fold change vs veh, FAHD1 / RFU, BDP1 / Fold change vs veh, BDP1 / RFU, LRRCC1 / Fold change vs veh, LRRCC1 / RFU, ARID1A / Fold change vs veh, ARID1A / RFU, ZNF146 / Fold change vs veh, ZNF146 / RFU, ZNF330 / Fold change vs veh, ZNF330 / RFU, GPN3 / Fold change vs veh, GPN3 / RFU, C9orf123 / Fold change vs veh, C9orf123 / RFU, N4BP2L2 / Fold change vs veh, N4BP2L2 / RFU, ARFIP1 / Fold change vs veh, ARFIP1 / RFU, FAM179B / Fold change vs veh, FAM179B / RFU, BCL10 / Fold change vs veh, BCL10 / RFU, UHRF1BP1L / Fold change vs veh, UHRF1BP1L / RFU, BET1 / Fold change vs veh, BET1 / RFU, CNOT2 / Fold change vs veh, CNOT2 / RFU, ZNF268 / Fold change vs veh, ZNF268 / Fold change vs veh, ZNF507 / RFU, DGCR2 / Fold change vs veh, DGCR2 / RFU, WDSUB1 / Fold change vs veh, WDSUB1 / Fold change vs veh, HSP90B1 /// MIR3652 / RFU, ADSS / Fold change vs veh, ADSS / RFU, GK / Fold change vs veh, GK / RFU, ZNF148 / Fold change vs veh, ZNF148 / RFU, TAF9 / Fold change vs veh, TAF9 / RFU, SLC1A5 / Fold change vs veh, SLC1A5 / RFU, SLMO2 / Fold change vs veh, SLMO2 / RFU, ABCC4 / Fold change vs veh, ABCC4 / RFU, LOC101060439 /// RAP1B / Fold change vs veh, LOC101060439 /// RAP1B / RFU, RFX7 / Fold change vs veh, RFX7 / RFU, GTPBP10 / Fold change vs veh, GTPBP10 / RFU, CNEP1R1 / Fold change vs veh, CNEP1R1 / RFU, BIVM-ERCC5 /// ERCC5 / Fold change vs veh, BIVM-ERCC5 /// ERCC5 / RFU, ILF3 / Fold change vs veh, ILF3 / RFU 11762660_at / Fold change /veh 11762660_at / RFU VCAN (11757783_s_at) / Fold change /veh VCAN (11757783_s_at) / RFU DDX43 (11728927_at) / Fold change /veh DDX43 (11728927_at) / RFU KRT8 (11758188_x_at) / Fold change /veh KRT8 (11758188_x_at) / RFU NKD1 (11759106_at) / Fold change /veh NKD1 (11759106_at) / RFU SRD5A1 (11742802_a_at) / Fold change /veh SRD5A1 (11742802_a_at) / RFU TPSAB1 /// TPSB2 (11721975_s_at) / Fold change /veh TPSAB1 /// TPSB2 (11721975_s_at) / RFU GSTM3 (11746129_a_at) / Fold change /veh GSTM3 (11746129_a_at) / RFU IL23R (11737362_x_at) / Fold change /veh IL23R (11737362_x_at) / RFU TMEM51 (11727254_a_at) / Fold change /veh TMEM51 (11727254_a_at) / RFU PIWIL2 (11732686_x_at) / Fold change /veh PIWIL2 (11732686_x_at) / RFU ORM1 (11744905_x_at) / Fold change /veh ORM1 (11744905_x_at) / RFU CCDC152 (11743942_at) / Fold change /veh CCDC152 (11743942_at) / RFU ECM1 (11717891_a_at) / Fold change /veh ECM1 (11717891_a_at) / RFU IL23R (11748794_a_at) / Fold change /veh IL23R (11748794_a_at) / RFU TNFAIP8L3 (11732012_x_at) / Fold change /veh TNFAIP8L3 (11732012_x_at) / RFU MBOAT4 (11741988_at) / Fold change /veh MBOAT4 (11741988_at) / RFU 11764193_at / Fold change /veh 11764193_at / RFU TMEM53 (11763286_at) / Fold change /veh TMEM53 (11763286_at) / RFU MAGEB2 (11727129_at) / Fold change /veh MAGEB2 (11727129_at) / RFU TMEM200A (11744735_a_at) / Fold change /veh TMEM200A (11744735_a_at) / RFU CCDC152 (11751479_a_at) / Fold change /veh CCDC152 (11751479_a_at) / RFU FAM211A (11726209_a_at) / Fold change /veh FAM211A (11726209_a_at) / RFU RGS16 (11746705_a_at) / Fold change /veh RGS16 (11746705_a_at) / RFU VCAN (11755009_s_at) / Fold change /veh VCAN (11755009_s_at) / RFU RHOB (11743442_s_at) / Fold change /veh RHOB (11743442_s_at) / RFU RGS16 (11720943_a_at) / Fold change /veh RGS16 (11720943_a_at) / RFU RGS16 (11720944_at) / Fold change /veh RGS16 (11720944_at) / RFU, VPS4B / Fold change vs veh, VPS4B / RFU, CREB1 / Fold change vs veh, CREB1 / RFU, DNAJC13 / Fold change vs veh, DNAJC13 / RFU, GNAQ / Fold change vs veh, GNAQ / RFU, CDK5R1 / Fold change vs veh, CDK5R1 / RFU, ZRANB3 / Fold change vs veh, ZRANB3 / RFU, CUL4A / Fold change vs veh, CUL4A / RFU, CCNY / Fold change vs veh, CCNY / RFU, UFL1 / Fold change vs veh, UFL1 / RFU, COG3 / Fold change vs veh, COG3 / RFU, DIAPH2 / Fold change vs veh, DIAPH2 / RFU, SKA2 / Fold change vs veh, SKA2 / RFU, AFF3 / Fold change vs veh, AFF3 / RFU, LMF1 / Fold change vs veh, LMF1 / RFU, IPO11 / Fold change vs veh, IPO11 / RFU, DFFB / Fold change vs veh, DFFB / RFU, FOXP1 / Fold change vs veh, FOXP1 / RFU, CARD8 / Fold change vs veh, CARD8 / RFU, STRN3 / Fold change vs veh, STRN3 / RFU, ADK / Fold change vs veh, ADK / RFU, RASSF2 / Fold change vs veh, RASSF2 / RFU, WIPF1 / Fold change vs veh, WIPF1 / RFU, LARP1B / Fold change vs veh, LARP1B / RFU, RASA1 / Fold change vs veh, RASA1 / RFU, RB1 / Fold change vs veh, RB1 / RFU, PPFIA1 / Fold change vs veh, PPFIA1 / RFU, MAT2A / Fold change vs veh, MAT2A / RFU, CCT5 / Fold change vs veh, CCT5 / RFU, WDR92 / Fold change vs veh, WDR92 / RFU, CUX1 / Fold change vs veh, CUX1 / RFU, TTC7A / Fold change vs veh, TTC7A / RFU, TMEM135 / Fold change vs veh, TMEM135 / RFU, DEPTOR / Fold change vs veh, DEPTOR / RFU, CPM / Fold change vs veh, CPM / RFU, DNAJB6 / Fold change vs veh, DNAJB6 / RFU, CACNA2D3 / Fold change vs veh, CACNA2D3 / RFU, DTX4 / Fold change vs veh, DTX4 / RFU, TFCP2 / Fold change vs veh, TFCP2 / RFU, GMCL1 /// GMCL1P1 / Fold change vs veh, GMCL1 /// GMCL1P1 / RFU, AEBP2 / Fold change vs veh, AEBP2 / RFU, SNHG1 /// SNORD22 /// SNORD25 /// SNORD26 /// SNORD27 /// SNORD28 /// SNORD29 /// SNORD31 / Fold change vs veh, SNHG1 /// SNORD22 /// SNORD25 /// SNORD26 /// SNORD27 /// SNORD28 /// SNORD29 /// SNORD31 / Fold change (Aza/veh), C12orf56 (ProbeSet 11735607_a_at) / Fold change (ACY-1035/veh), C12orf56 (ProbeSet 11735607_a_at) / Fold change (Aza/veh), FGFR1OP (ProbeSet 11751329_s_at) / Fold change (ACY-1035/veh), FGFR1OP (ProbeSet 11751329_s_at) / Fold change (Aza/veh), VPS36 (ProbeSet 11739960_a_at) / Fold change (ACY-1035/veh), VPS36 (ProbeSet 11739960_a_at) / RFU SYPL1 (11715823_x_at) / Fold change /veh SYPL1 (11715823_x_at) / RFU IGFBP7 (11715501_s_at) / Fold change /veh IGFBP7 (11715501_s_at) / RFU REEP3 (11722064_at) / Fold change /veh REEP3 (11722064_at) / RFU IGLL1 (11728026_x_at) / Fold change /veh IGLL1 (11728026_x_at): dose or concentration left out as unconfirmed
Conditions: ProbeSet 11744854_x_at; LIST B

SMILES: Nc1ncn([C@@H]2O[C@H](CO)[C@@H](O)[C@H]2O)c(=O)n1 [azacitidine]
- Fold change vs veh, ZNF28: 0.91
